Laboratory results reported in paper PMC7125190, “Native/citrullinated LL37-specific T-cells help autoantibody production in Systemic Lupus Erythematosus” (Scientific Reports, 2020).

Columns and labels:
Assay type in all cases: cell-based, human
PBMCs = test: LL37-specific T-cell help: autoantibodies in PBMC culture supernatants by ELISA; settings: for anti-LL37/anti-cit-LL37 antibodies in culture supernatants: SLE PBMCs, 7 days
Procedure: Anti-native/cit-LL37, other antigen antibodies (anti-DNA and anti-RNA), and total anti-human IgG were measured by ELISA as described. Briefly, 96-well flat-bottom plates (Non-Binding surface polystyrene, Corning, USA) are coated with 2 μg/mL of native LL37/cit-LL37 or control proteins or human DNA or human RNA[9] or anti-human IgG antibody (Sigma) in carbonate buffer (0.1 M NaHCHO3, pH 9) for 2 hours (or over night) and washed four times with PBS 0.1% Tween-20. This washing buffer was used for washing at all steps. The blocking buffer containing 2% bovine serum albumin (BSA, Sigma) in PBS was used for at least 1 hour (or over night) to saturate unspecific binding sites. After washing, sera were diluted at various concentrations (usually 1:100 or 1:200) in PBS 2% BSA (cell culture supernatants were diluted 1:2, 1:4 or 1:10) followed by 1 hour incubation with a horseradish peroxidase–conjugated (HRP) goat anti-human IgG (Sigma-Aldrich), diluted 1:10,000 in PBS. The color was developed for 5 minutes with 3,3’,5,5’-tetramethylbenzidine (TMB) substrate (Sigma-Aldrich). The reaction was stopped by adding 50 μl of 2 N H2SO4, and absorbance determined at 450 nm with a reference wavelength of 540 nm. Anti-dsDNA in sera of lupus patients were detected by the standard clinical test Kallestad Crithidia luciliae Complete Kits for detection and semi-quantitation of autoantibodies to native DNA (nDNA) antigens by indirect fluorescence antibody (IFA) procedure. ELISA for detection of anti-tetanus antibodies (anti-TT) was from Abnova (Taiwan).
(§1) Peptide-MHC-tetramer staining of T-cell lines/clones and blood T-cells
Peptide-MHC-tetramers (Table S4) were from ProImmune, (UK), TC Metrix, (CH), Benaroya, (USA) and ImmunAware (Denmark). Staining was performed for 40 minutes at 37°C, followed by staining for CD4 (4°C, 20 minutes). Before flow cytometry-acquisition, cells were labelled with PercP-conjugated 7-AAD to exclude dead cells.
LL37 specific T-cell help for production of autoantibodies
We cultured patient PBMCs with LL37 or control antigens and low doses of hrIL-2 (added at day 6, 10U/mL), and we detected appearance of autoantibodies in the culture supernatants by ELISA at various time points (from 7-to 10 days and, when needed, after a second stimulation with autologous PBMCs and antigen). In parallel, we monitored appearance of markers typical of B-cells/plasma cells (CD20, CD27, CD38, CD138) in the CD3neg cells by flow cytometry.
Immunohistochemistry and laser scanner confocal microscopy (LSM)
We performed staining on […] paraffin or frozen sections of human lupus erythematosus skin specimens obtained from CHUV, Dept. of Dermatology. Staining with anti-cit-LL37 Mabs was performed using the antibodies Mab142 and Mab137 at 1:40 dilution, followed by incubation with a […] (Abcam). HRP and DAB (DAKO) were used to develop the color. Nuclear staining was performed with Mayer’s haematoxylin.
To visualize NETs, we seeded neutrophils on coverslips pre-treated with polylysine and stimulated them with various stimuli to induce release of the NETs. After 3 hours, cells were gently washed and stained with anti-CD15-PE or biotinylated polyclonal rabbit anti-LL37 antibodies (Innovagen), followed by addition of AlexaFluor 488-streptavidin. Frozen or paraffin-included SLE renal biopsies, obtained from Policlinico Umberto I, Rome, IT or CHUV Lausanne, CH, were stained, after saturation with blocking buffer (PBS, 0.05% tween 20, 4% BSA) for 1 hour at room temperature. Bopsies in paraffin were stained after de-paraffination in xilene (5 minutes, two times), followed by passages in: absolute ethanol (3 minutes), 95% ethanol in water (3 minutes), 80% ethanol in water (3 minutes), 70% ethanol in water (3 minutes), and antigen retrieval (5 minutes at […]

[1] = tested on: CD4 T-cells in PBMC cultures; test: TFH/Th17 marker expression by flow cytometry (CXCR5, Bcl-6, Ror-γt); settings: for Bcl-6 expression / Ror-ɣt expression: CD38hi T-cells, 48 hours; for Bcl-6 expression: SLE but not psoriasis; for Ror-ɣt expression: both SLE and psoriasis; for CXCR5 expression by proliferating T-cells: SLE (but not in psoriasis)
Procedure: PBMCs were purified, from EDTA-treated blood, on Ficoll-Hypaque (Pharmacia Fine Chemicals, Uppsala, Sweden) were incubated (10^5 cells/well) in 96-well-flat-bottom-microplates (BD) in T cell-medium (RPMI 1640, 10% heat-inactivated human serum, HS, Gibco), 2 mM L-glutamine, 10 U/mL penicillin, and 100 μg/mL streptomycin), with/without peptides. We performed assays on fresh cells, within 1-to-3 hours from collection, or on PBMCs frozen in 90% FCS-10%DMSO, whose viability we assessed by Trypan blue exclusion, at inverted microscope. Recovery of live cells was between 65 and 85 % of the frozen number. At day3 and 5, BrdU was added (1 μg/mL). BrdU-incorporation was detected by APC-labeled anti-BrdU antibody (BD Pharmingen), after surface staining by flow cytometry. Internal control for T-cell viability and proliferation was PHA treatment (2 μg/mL). SI for proliferation was calculated by dividing percent of BrdU-staining in the presence of each peptide used to stimulate cells by percent of BrdU-staining in the absence of peptide stimulation. SI for proliferation was considered positive when>3. This cut-off was obtained by calculating the mean+2DS [1.5 + 2 (0.6)] (of the stimulation indexes calculated as above) of the proliferation of HD.
Basal % of proliferation was set using, as reference, an isotype matched antibody staining (APC-isotype control and) and never exceed 5% of cell proliferation value (background proliferation).
Assays were repeated twice with each patient. In rare cases in which background proliferation exceed antigen-specific proliferation the assay was repeated three times. Concomitant phenotype analysis of LL37-responder T-cells included staining for CD4, CD8, CXCR5, PD1, ICOS, CCR6. Ror-ɣt and Bcl-6 were measured by intracellular staining and flow cytometry, after 48 hours culture with LL37 or control antigen, and were analyzed on CD38highCD4 T-cells. […]

CD4 T-cells = test: Peptide-MHC-tetramer staining of PBMC after seven-day culture; settings: for peptide-MHC-tetramer staining in HLA-matched HD: HLA-matched HD PBMCs; for peptide-MHC-tetramer staining at remission: SLE2, SLE22 and CLE6 PBMCs at remission
Procedure: as §1
Peptide-MHC-tetramers (Table S4) were from ProImmune, (UK), TC Metrix, (CH), Benaroya,
(USA) and ImmunAware (Denmark). Staining was performed for 40 minutes at 37°C, followed by
staining for CD4 (4°C, 20 minutes). Before flow cytometry-acquisition, cells were labelled with
PercP-conjugated 7-AAD to exclude dead cells. […]

LLGDFFRKSKEKIGKEFKRIVQRIKDFLRNLVPRTES [LL37, native LL37, antimicrobial peptide, 37 aa]
anti-LL37/cit-LL37 antibody production (PBMCs; PBMCs of psoriasis patients whose T-cells proliferate to LL37, and HD PBMCs): did not lead to significant anti-LL37/cit-LL37 antibody production | anti-LL37/anti-cit-LL37 antibodies in culture supernatants (PBMCs): became apparent in culture supernatants | anti-HNPs and anti-TT antibodies (PBMCs; SLE cultures): did not increase | anti-DNA- and RNA-antibody reactivity (PBMCs; SLE cultures, sequential stimulation with autologous PBMCs and native LL37): became also detectable | Bcl-6 expression [1]: could up-regulate Bcl-6 | Ror-ɣt expression [1]: could upregulate Ror-ɣt expression | CXCR5 expression by proliferating T-cells [1]: significant up-regulation | peptide-MHC-tetramer staining in HLA-matched HD (CD4 T-cells; seven-day culture): did not stain significantly | peptide-MHC-tetramer staining at remission (CD4 T-cells): not staining for native-LL37

LLGDFFR(cit)KSKEKIGKEFKR(cit)IVQR(cit)IKDFLR(cit)NLVPR(cit)TES [cit-LL37, citrullinated LL37 (citrullinated at all five arginin positions)]
anti-LL37/anti-cit-LL37 antibodies in culture supernatants (PBMCs): became apparent in culture supernatants | anti-HNPs and anti-TT antibodies (PBMCs; SLE cultures): did not increase | Bcl-6 expression [1]: could up-regulate Bcl-6 | Ror-ɣt expression [1]: could upregulate Ror-ɣt expression | CXCR5 expression by proliferating T-cells [1]: significant up-regulation | peptide-MHC-tetramer staining in HLA-matched HD (CD4 T-cells; seven-day culture): did not stain significantly | peptide-MHC-tetramer staining at remission (CD4 T-cells): still observed some staining upon stimulation with cit-LL37 | frequency of peptide-MHC-tetramer positive T-cells, cit-LL37 versus native-LL37 (CD4 T-cells; three patients (SLE2, SLE22, CLE6), seven-day culture): higher upon culture of PBMCs with cit-LL37 compared to native-LL37
